From patent EP2138545B1, “USE OF PORPHYRAZINE DERIVATIVE AS SEMICONDUCTOR” (Hiroshima University, priority 2007, dated 2008)
Values after ≈ are worked out from the molar mass of the structure shown. Read-outs that look alike come from different tables or passages of the source.

Assay: Measurement of solubility in chloroform and in dichloromethane (solvent added by 0.1 mL until the whole amount dissolved)
Type: physicochemical
Details: for solubility: organic solvent or mixture, thermodynamic from solid
Method: Respective compounds indicated by "6" and "7" were subjected to measurements of solubility in chloroform and in dichloromethane. In the measurements, approximately 3mg of a compound was prepared in advance by a precise weighing. Then, a solvent was added by 0.1mL to the compound and thereafter stirred or subjected to ultrasonic agitation. The solubility (mg/mL) was determined from an amount of the solvent used in dissolving a whole amount of the compound.

SMILES | solubility in chloroform (solvent chloroform) [mg/mL] | solubility in dichloromethane (solvent dichloromethane) [mg/mL] | solubility (solvent chloroform, read-out: solubility in chloroform) [mg/mL] | solubility (solvent dichloromethane, read-out: solubility in dichloromethane) [mg/mL]
CCCCCCc1cc2c(s1)-c1nc-2nc2[nH]c(nc3nc(nc4[nH]c(n1)c1cc(CCCCCC)sc41)-c1cc(CCCCCC)sc1-3)c1cc(CCCCCC)sc21 [compound 6, Tetra(hexylthieno)porphyrazine] | 29 (≈ 33100 µM) |  |  | 
CCCCCCc1cc2c(s1)C1=NC2=Nc2c3sc(CCCCCC)cc3c3[n]2[Cu][n]2c(c4cc(CCCCCC)sc4c2=NC2=NC(=N3)c3sc(CCCCCC)cc32)=N1 [compound 7, Copper (II) complex] | 11 | 10 |  | 
c1cc2c(s1)-c1nc-2nc2[nH]c(nc3nc(nc4[nH]c(n1)c1ccsc41)-c1ccsc1-3)c1ccsc21 [unsubstituted phthalocyanine derivative, reference compound] |  |  | < 0.02 | < 0.02
